The results in this text go back to patent US11147272B2, “Pyridone compounds and agricultural and horticultural fungicides comprising the same as active ingredients” (MITSUI CHEMICALS AGRO, INC., priority 2017, dated 2021).

One assay concerns Botrytis cinerea. Description: Test Example B: Gray mold on tomato. The conditions noted are these: 250 ppm drug solution sprayed on test plant.
A further assay deals with Phytophthora infestans. Description: whole plant or invertebrate. In kind it is in vivo. To be noted: 250 ppm drug solution sprayed on test plant.
For assay [1], the system named is Colletotrichum orbiculare. Description: Test Example H: Anthracnose on cucumber. To be noted: 250 ppm drug solution sprayed (2.5 ml/pot), cucumber Sagami Hanjiro, 6 to 10 days after inoculation.
Procedure: Seeds of a test plant (cucumber variety: Sagami Hanjiro) were planted and cultivated until the first leaf appeared. In the test, the inventive compounds were dissolved into dimethyl sulfoxide-methanol mixture solution (volume ratio: 9/1), and the resultant solutions were diluted with well water to a concentration of 250 ppm to obtain the drug solutions. The drug solutions were sprayed to the test plant (2.5 ml/pot). After the drug solutions dried, a conidial suspension (2-4×10^5 conidia/ml) of Colletotrichum orbiculare was inoculated to the plant by spraying. After the inoculation, the plant was kept in a mist chamber at room temperature of 20 to 23° C. for about 24 hours to promote the onset of disease. The degrees of disease development were investigated 6 to 10 days after the inoculation, and the effectiveness of the drug solutions was evaluated.
In Test Examples described above, the degrees of disease development were evaluated in increments of 0.05 from 0 (as no incidence of disease) to 3 (as the degree of disease development in an untreated plant group). Further, control values were calculated using the following equation based on the degree of disease development.
n=Degree of disease development in each treated group
In the table, H: more than 50% control value, L: 50% or less control value, and nt: not tested.
The subject of the next assay is Alternaia brassicicola. Description: Test Example C: Alternaria sooty spot on cabbage. To be noted: 250 ppm drug solution sprayed on test plant. It counts as in vivo. The source says:
Seeds of a test plant (cabbage variety: Shikidori) were planted and cultivated until the cotyledons extended.
<Control Value> Control value=100{1−(n/3)}

Assay [2] has as its system Blumeria graminis f. sp. hordei. Description: Test Example D: Powdery mildew on barley. To be noted: 250 ppm drug solution sprayed on test plant.
In the next assay the test system is Plasmopara viticola. Description: Test Example G: Downy mildew on vine. The conditions noted are these: 250 ppm drug solution sprayed (2.5 ml/pot), grape Neomuscat, 7 to 10 days after inoculation.
Another assay deals with Magnaporthe grisea. Description: whole plant or invertebrate. In kind it is in vivo. The conditions noted are these: 250 ppm drug solution sprayed on test plant.
The test system of the next assay is Puccinia recondita. Description: Test Example E: Brown rust on wheat. In kind it is in vivo. To be noted: 250 ppm drug solution sprayed on test plant.

On to `CCCc1cc(I)c(=O)n(CC(F)F)c1-c1c(F)cc(OC)cc1F` [compound 477], for which, in the assay on Botrytis cinerea, the “Test B control value” was “H (more than 50% control value)”. Further, the “Test F control value” with Phytophthora infestans is “L (50% or less control value)”. For the same compound, in assay [1], the “Test H control value” is “H (more than 50% control value)”. The “Test C control value” in the assay on Alternaia brassicicola is recorded as “H (more than 50% control value)”. Further, the “Test D control value” in assay [2] was “H (more than 50% control value)”. In addition, the “Test G control value” in the assay on Plasmopara viticola is listed as “L (50% or less control value)”. The “Test A control value” in the assay with Magnaporthe grisea was “H (more than 50% control value)”. Also, the “Test E control value” with Puccinia recondita is “H (more than 50% control value)”.

For the compound `CCn1c(-c2c(F)cc(F)cc2F)c(CO)ccc1=O` [compound 478], in the assay with Botrytis cinerea, the “Test B control value” is “L (50% or less control value)”. Also, the “Test F control value” with Phytophthora infestans is “L (50% or less control value)”. Further, in assay [1], the “Test H control value” was “L (50% or less control value)”. For the same compound, in the assay on Alternaia brassicicola, the “Test C control value” is “L (50% or less control value)”. Moreover, the “Test D control value” in assay [2] was “H (more than 50% control value)”. Further, the “Test G control value” with Plasmopara viticola is listed as “L (50% or less control value)”. In the assay on Magnaporthe grisea, the “Test A control value” is “L (50% or less control value)”. In the assay on Puccinia recondita, the “Test E control value” was “L (50% or less control value)”.

As to `CCn1c(-c2c(F)cc(F)cc2F)c(C(C)(OC)C(C)C)ccc1=O` (stereo not shown) [compound 479], the “Test B control value” in the assay on Botrytis cinerea is “H (more than 50% control value)”. Also, in the assay on Phytophthora infestans, the “Test F control value” was “L (50% or less control value)”. Besides, the “Test H control value” in assay [1] was “H (more than 50% control value)”. The “Test C control value” in the assay on Alternaia brassicicola was “H (more than 50% control value)”. The “Test D control value” in assay [2] is listed as “H (more than 50% control value)”. Further, the “Test G control value” with Plasmopara viticola was “H (more than 50% control value)”. The “Test A control value” in the assay on Magnaporthe grisea was “H (more than 50% control value)”. Moreover, the “Test E control value” in the assay on Puccinia recondita is “H (more than 50% control value)”.

Turning to `CCC(=O)c1ccc(=O)n(CC)c1-c1c(F)cc(F)cc1F` [compound 480], the “Test B control value” with Botrytis cinerea is “H (more than 50% control value)”. Further, in the assay with Phytophthora infestans, the “Test F control value” is listed as “L (50% or less control value)”. The “Test H control value” in assay [1] was “H (more than 50% control value)”. In the assay with Alternaia brassicicola, the “Test C control value” is reported as “L (50% or less control value)”. Also, the “Test D control value” in assay [2] was “H (more than 50% control value)”. Also, the “Test G control value” with Plasmopara viticola is given as “L (50% or less control value)”. Besides, the “Test A control value” in the assay with Magnaporthe grisea is reported as “L (50% or less control value)”. In the assay on Puccinia recondita, the “Test E control value” is on record as “L (50% or less control value)”.

Turning to `CCn1c(-c2c(F)cc(F)cc2F)c(C(C)(O)CC)ccc1=O` (stereo not shown) [compound 481], in the assay on Botrytis cinerea, the “Test B control value” is on record as “H (more than 50% control value)”. In the assay with Phytophthora infestans, the “Test F control value” is recorded as “L (50% or less control value)”. Further, in assay [1], the “Test H control value” was “H (more than 50% control value)”. For the same compound, the “Test C control value” with Alternaia brassicicola was “L (50% or less control value)”. For the same compound, in assay [2], the “Test D control value” was “H (more than 50% control value)”. Besides, the “Test G control value” in the assay with Plasmopara viticola is “L (50% or less control value)”. Further, the “Test A control value” with Magnaporthe grisea is reported as “L (50% or less control value)”. In the assay on Puccinia recondita, the “Test E control value” was “H (more than 50% control value)”.

Turning to `CCn1c(-c2c(F)cc(F)cc2F)c(C(C)(O)CC)cc(Br)c1=O` (stereo not shown) [compound 482], the “Test B control value” with Botrytis cinerea is reported as “H (more than 50% control value)”. Further, the “Test F control value” in the assay with Phytophthora infestans is on record as “L (50% or less control value)”. Moreover, in assay [1], the “Test H control value” was “H (more than 50% control value)”. Also, the “Test C control value” in the assay with Alternaia brassicicola was “H (more than 50% control value)”. Moreover, the “Test D control value” in assay [2] is on record as “H (more than 50% control value)”. For the same compound, in the assay on Plasmopara viticola, the “Test G control value” is “H (more than 50% control value)”. For the same compound, the “Test A control value” in the assay with Magnaporthe grisea is reported as “H (more than 50% control value)”. Besides, in the assay with Puccinia recondita, the “Test E control value” is reported as “H (more than 50% control value)”.

As to `CCn1c(-c2c(F)cc(F)cc2F)c(C(C)(CC)OC)cc(Br)c1=O` (stereo not shown) [compound 483], the “Test B control value” in the assay on Botrytis cinerea was “H (more than 50% control value)”. Moreover, in the assay on Phytophthora infestans, the “Test F control value” is given as “L (50% or less control value)”. Moreover, the “Test H control value” in assay [1] is on record as “H (more than 50% control value)”. Further, the “Test C control value” with Alternaia brassicicola was “H (more than 50% control value)”. Further, the “Test D control value” in assay [2] was “H (more than 50% control value)”. The “Test G control value” with Plasmopara viticola is on record as “H (more than 50% control value)”. The “Test A control value” with Magnaporthe grisea is given as “H (more than 50% control value)”. Also, the “Test E control value” in the assay with Puccinia recondita is listed as “H (more than 50% control value)”.

`CCOC(C)(CC)c1cc(Br)c(=O)n(CC)c1-c1c(F)cc(F)cc1F` (stereo not shown) [compound 484]: the “Test B control value” in the assay on Botrytis cinerea was “H (more than 50% control value)”. Moreover, the “Test F control value” in the assay with Phytophthora infestans is on record as “L (50% or less control value)”. Also, in assay [1], the “Test H control value” is reported as “H (more than 50% control value)”. Besides, the “Test C control value” in the assay with Alternaia brassicicola is “L (50% or less control value)”. In assay [2], the “Test D control value” is on record as “H (more than 50% control value)”. Moreover, the “Test G control value” with Plasmopara viticola was “H (more than 50% control value)”. Besides, the “Test A control value” with Magnaporthe grisea was “H (more than 50% control value)”. Further, in the assay with Puccinia recondita, the “Test E control value” is on record as “H (more than 50% control value)”.

On to `CCOC(C)(CC)c1cc(Br)c(=O)n(CC)c1-c1c(F)cc(OC)cc1F` (stereo not shown) [compound 485], for which the “Test B control value” with Botrytis cinerea was “H (more than 50% control value)”. The “Test F control value” in the assay with Phytophthora infestans is recorded as “L (50% or less control value)”. For the same compound, the “Test H control value” in assay [1] is reported as “H (more than 50% control value)”. Besides, the “Test C control value” in the assay with Alternaia brassicicola is given as “H (more than 50% control value)”. Besides, the “Test D control value” in assay [2] was “L (50% or less control value)”. Besides, the “Test G control value” in the assay on Plasmopara viticola was “L (50% or less control value)”. The “Test A control value” in the assay with Magnaporthe grisea is “H (more than 50% control value)”. For the same compound, the “Test E control value” with Puccinia recondita is listed as “H (more than 50% control value)”.

Consider `CCn1c(-c2c(F)cc(OC)cc2F)c(C(C)(CC)OC)cc(Br)c1=O` (stereo not shown) [compound 486], for which, in the assay on Botrytis cinerea, the “Test B control value” is recorded as “H (more than 50% control value)”. The “Test F control value” in the assay on Phytophthora infestans was “L (50% or less control value)”. In addition, in assay [1], the “Test H control value” was “H (more than 50% control value)”. Moreover, in the assay with Alternaia brassicicola, the “Test C control value” is “H (more than 50% control value)”. Moreover, the “Test D control value” in assay [2] was “H (more than 50% control value)”. Moreover, the “Test G control value” in the assay on Plasmopara viticola was “L (50% or less control value)”. Moreover, the “Test A control value” with Magnaporthe grisea is “H (more than 50% control value)”. For the same compound, in the assay on Puccinia recondita, the “Test E control value” is given as “H (more than 50% control value)”.

On to `COc1cc(F)c(-c2c(C(C)(O)C(C)C)cc(Cl)c(=O)n2C)c(F)c1` (stereo not shown) [compound 487], for which, in the assay on Botrytis cinerea, the “Test B control value” is listed as “H (more than 50% control value)”. In addition, the “Test F control value” in the assay with Phytophthora infestans is recorded as “H (more than 50% control value)”. For the same compound, in assay [1], the “Test H control value” was “H (more than 50% control value)”. Also, in the assay with Alternaia brassicicola, the “Test C control value” is reported as “H (more than 50% control value)”. Moreover, the “Test D control value” in assay [2] was “H (more than 50% control value)”. Also, the “Test G control value” in the assay on Plasmopara viticola is “H (more than 50% control value)”. Besides, the “Test A control value” in the assay on Magnaporthe grisea is reported as “H (more than 50% control value)”. Also, the “Test E control value” in the assay on Puccinia recondita is “H (more than 50% control value)”.
